pEC50: −log10 of the molar value. Activity calls are given as the source filed them. The rule behind the calls is not given here.
Experiments:
[1] = molecular target: T1, Cytochrome P450 (family) (Homo sapiens, UniProt P04798+P05177+P05181+P08684+P10632+P10635+P11509+P11712+P13584+P20813+P20815+P20853+P24462+P24903+P33260+P33261+P51589+P78329+P98187+Q02928+Q08477+Q16678+Q16696+Q5TCH4+Q6VVX0+Q7Z449+Q8TAV3+Q96SQ9+Q9HB55); experiment: Drug metabolism in human liver microsome S9 fraction assessed as CYP450-mediated metabolism by measuring compound remaining at 5 uM pretreated with NADPH and measured after 15 mins by UPLC-MS/MS analysis; format: ADME, microsomes; details: liver microsome S9 fraction, read-out: Stability
[2] = Therapeutic index, ratio EC50 for human MRC5 SV2 cells to EC50 for Trypanosoma cruzi Tulahuen CL2 intracellular amastigotes; format: toxicity, cell-based; details: read-out: Ratio EC50
[3] = tested on: Trypanosoma cruzi; experiment: Antiparasitic activity against Trypanosoma cruzi Tulahuen CL2 intracellular amastigotes expressing beta-galactosidase infected in human MRC5 SV2 cells after 7 days by chlorophenol red beta-D-galactopyranoside-based spectrophotometric analysis; format: functional, organism-based; details: Tulahuen CL2, MRC-5 SV2, 168 h, read-out: EC50
[4] = Cytotoxicity against human MRC5 SV2 cells assessed as reduction in cell viability after 3 days resazurin-based fluorimetric assay; details: MRC-5 SV2, 72 h
[5] = tested on: CYP450; experiment: Drug metabolism in mouse liver microsome S9 fraction assessed as CYP450-mediated metabolism by measuring compound remaining at 5 uM pretreated with NADPH and measured after 15 mins by UPLC-MS/MS analysis; format: ADME, microsomes; details: liver microsome S9 fraction, read-out: Stability
[6] = tested on: CYP450; experiment: Drug metabolism in mouse liver microsome S9 fraction assessed as CYP450-mediated metabolism by measuring compound remaining at 5 uM pretreated with NADPH and measured after 30 mins by UPLC-MS/MS analysis; format: ADME, microsomes; details: liver microsome S9 fraction, read-out: Stability
[7] = tested on: CYP450; experiment: Drug metabolism in mouse liver microsome S9 fraction assessed as CYP450-mediated metabolism by measuring compound remaining at 5 uM pretreated with NADPH and measured after 60 mins by UPLC-MS/MS analysis; format: ADME, microsomes; details: liver microsome S9 fraction, read-out: Stability
[8] = tested on: UGT; experiment: (§1) Drug metabolism in mouse liver microsome S9 fraction assessed as UGT-mediated metabolism by measuring compound remaining at 5 uM pretreated with UDPGA and measured after 15 mins by UPLC-MS/MS analysis; format: ADME, microsomes; details: liver microsome S9 fraction, read-out: Stability
[9] = tested on: UGT; experiment: Drug metabolism in mouse liver microsome S9 fraction assessed as UGT-mediated metabolism by measuring compound remaining at 5 uM pretreated with UDPGA and measured after 30 mins by UPLC-MS/MS analysis; format: ADME, microsomes; details: liver microsome S9 fraction, read-out: Stability
[10] = tested on: UGT; experiment: Drug metabolism in mouse liver microsome S9 fraction assessed as UGT-mediated metabolism by measuring compound remaining at 5 uM pretreated with UDPGA and measured after 60 mins by UPLC-MS/MS analysis; format: ADME, microsomes; details: liver microsome S9 fraction, read-out: Stability
[11] = tested on: CYP450; experiment: (§2) Drug metabolism in rat liver microsome S9 fraction assessed as CYP450-mediated metabolism by measuring compound remaining at 5 uM pretreated with NADPH and measured after 15 mins by UPLC-MS/MS analysis; format: ADME, microsomes; details: liver microsome S9 fraction, read-out: Stability
[12] = tested on: CYP450; experiment: Drug metabolism in rat liver microsome S9 fraction assessed as CYP450-mediated metabolism by measuring compound remaining at 5 uM pretreated with NADPH and measured after 30 mins by UPLC-MS/MS analysis; format: ADME, microsomes; details: liver microsome S9 fraction, read-out: Stability
[13] = tested on: CYP450; experiment: Drug metabolism in rat liver microsome S9 fraction assessed as CYP450-mediated metabolism by measuring compound remaining at 5 uM pretreated with NADPH and measured after 60 mins by UPLC-MS/MS analysis; format: ADME, microsomes; details: liver microsome S9 fraction, read-out: Stability
[14] = tested on: UGT; experiment: Drug metabolism in rat liver microsome S9 fraction assessed as UGT-mediated metabolism by measuring compound remaining at 5 uM pretreated with UDPGA and measured after 15 mins by UPLC-MS/MS analysis; format: ADME, microsomes; details: liver microsome S9 fraction, read-out: Stability
[15] = tested on: UGT; experiment: Drug metabolism in rat liver microsome S9 fraction assessed as UGT-mediated metabolism by measuring compound remaining at 5 uM pretreated with UDPGA and measured after 30 mins by UPLC-MS/MS analysis; format: ADME, microsomes; details: liver microsome S9 fraction, read-out: Stability
[16] = tested on: UGT; experiment: Drug metabolism in rat liver microsome S9 fraction assessed as UGT-mediated metabolism by measuring compound remaining at 5 uM pretreated with UDPGA and measured after 60 mins by UPLC-MS/MS analysis; format: ADME, microsomes; details: liver microsome S9 fraction, read-out: Stability
[17] = tested on: CYP450; experiment: Drug metabolism in dog liver microsome S9 fraction assessed as CYP450-mediated metabolism by measuring compound remaining at 5 uM pretreated with NADPH and measured after 15 mins by UPLC-MS/MS analysis; format: ADME, microsomes, Canis lupus familiaris; details: liver microsome S9 fraction, read-out: Stability
[18] = tested on: CYP450; experiment: Drug metabolism in dog liver microsome S9 fraction assessed as CYP450-mediated metabolism by measuring compound remaining at 5 uM pretreated with NADPH and measured after 30 mins by UPLC-MS/MS analysis; format: ADME, microsomes, Canis lupus familiaris; details: liver microsome S9 fraction, read-out: Stability
[19] = tested on: UGT; experiment: Drug metabolism in dog liver microsome S9 fraction assessed as UGT-mediated metabolism by measuring compound remaining at 5 uM pretreated with UDPGA and measured after 30 mins by UPLC-MS/MS analysis; format: ADME, microsomes, Canis lupus familiaris; details: liver microsome S9 fraction, read-out: Stability
[20] = tested on: CYP450; experiment: Drug metabolism in dog liver microsome S9 fraction assessed as CYP450-mediated metabolism by measuring compound remaining at 5 uM pretreated with NADPH and measured after 60 mins by UPLC-MS/MS analysis; format: ADME, microsomes, Canis lupus familiaris; details: liver microsome S9 fraction, read-out: Stability
[21] = tested on: UGT; experiment: Drug metabolism in dog liver microsome S9 fraction assessed as UGT-mediated metabolism by measuring compound remaining at 5 uM pretreated with UDPGA and measured after 15 mins by UPLC-MS/MS analysis; format: ADME, microsomes, Canis lupus familiaris; details: liver microsome S9 fraction, read-out: Stability
[22] = tested on: UGT; experiment: Drug metabolism in dog liver microsome S9 fraction assessed as UGT-mediated metabolism by measuring compound remaining at 5 uM pretreated with UDPGA and measured after 60 mins by UPLC-MS/MS analysis; format: ADME, microsomes, Canis lupus familiaris; details: liver microsome S9 fraction, read-out: Stability
[23] = molecular target: T1, Cytochrome P450 (family); experiment: Drug metabolism in human liver microsome S9 fraction assessed as CYP450-mediated metabolism by measuring compound remaining at 5 uM pretreated with NADPH and measured after 30 mins by UPLC-MS/MS analysis; format: ADME, microsomes; details: liver microsome S9 fraction, read-out: Stability
[24] = molecular target: T1, Cytochrome P450 (family); experiment: Drug metabolism in human liver microsome S9 fraction assessed as CYP450-mediated metabolism by measuring compound remaining at 5 uM pretreated with NADPH and measured after 60 mins by UPLC-MS/MS analysis; format: ADME, microsomes; details: liver microsome S9 fraction, read-out: Stability
[25] = molecular target: T2, UDP-glucuronosyltransferases (UGTs) (family) (Homo sapiens, UniProt O60656+O75310+O75795+P06133+P0DTE4+P0DTE5+P16662+P19224+P22309+P22310+P35503+P35504+P36537+P54855+Q6UWM9+Q9BY64+Q9HAW7+Q9HAW8+Q9HAW9); experiment: Drug metabolism in human liver microsome S9 fraction assessed as UGT-mediated metabolism by measuring compound remaining at 5 uM pretreated with UDPGA and measured after 15 mins by UPLC-MS/MS analysis; format: ADME, microsomes; details: liver microsome S9 fraction, read-out: Stability
[26] = molecular target: T2, UDP-glucuronosyltransferases (UGTs) (family); experiment: Drug metabolism in human liver microsome S9 fraction assessed as UGT-mediated metabolism by measuring compound remaining at 5 uM pretreated with UDPGA and measured after 30 mins by UPLC-MS/MS analysis; format: ADME, microsomes; details: liver microsome S9 fraction, read-out: Stability
[27] = molecular target: T2, UDP-glucuronosyltransferases (UGTs) (family); experiment: Drug metabolism in human liver microsome S9 fraction assessed as UGT-mediated metabolism by measuring compound remaining at 5 uM pretreated with UDPGA and measured after 60 mins by UPLC-MS/MS analysis; format: ADME, microsomes; details: liver microsome S9 fraction, read-out: Stability
[28] = tested on: Trypanosoma cruzi; experiment: Antiparasitic activity against Trypanosoma cruzi Y strain bloodstream trypomastigotes infected in Swiss Webster mouse assessed as decrease in parasitemia at 25 mg/kg, po bid via gavage administered for 5 consecutive days measured at day 8 post infection by direct microscopic counting relative to control; format: functional; design: scale not given: the % may be the effect or the level left
[29] = tested on: Trypanosoma cruzi; experiment: Antiparasitic activity against Trypanosoma cruzi Y strain bloodstream trypomastigotes infected in Swiss Webster mouse assessed as protection against parasite-induced mortality at 25 mg/kg, po bid via gavage administered for 5 consecutive days starting from day 5 post infection measured at day 15 post infection; format: functional, organism-based
[30] = tested on: Trypanosoma cruzi; experiment: Antiparasitic activity against Trypanosoma cruzi Y strain bloodstream trypomastigotes infected in Swiss Webster mouse assessed as protection against parasite-induced mortality at 25 mg/kg, po bid via gavage administered for 5 consecutive days starting from day 5 post infection measured at day 15 to day 22 post infection; format: functional, organism-based
[31] = tested on: Trypanosoma cruzi; experiment: Trypanocidal activity against Trypanosoma cruzi Y strain bloodstream trypomastigotes isolated from infected Swiss mouse […] assessed as parasite death after 24 hrs by neubauer chamber based light microscopy; format: functional, organism-based
[32] = tested on: Trypanosoma cruzi; experiment: Trypanocidal activity against Trypanosoma cruzi Y strain intracellular amastigotes infected in mouse cardiac cells assessed as parasite death after 168 hrs by Giemsa-staining based assay; format: functional, organism-based
[33] = Cytotoxicity against Swiss mouse embryonic cardiomyocytes assessed as reduction in cell viability after 24 hrs by prestoblue-staining based colorimetry; details: Cardiac muscle cell
[34] = Toxicity in Swiss Webster mouse infected with Trypanosoma cruzi Y strain bloodstream trypomastigotes assessed as weight loss at 25 mg/kg, po bid via gavage administered for 5 consecutive days measured at day 40 post infection; format: organism-based; details: in vivo
[35] = tested on: Trypanosoma cruzi; experiment: Antiparasitic activity against Trypanosoma cruzi Y strain bloodstream trypomastigotes infected in Swiss Webster mouse assessed as protection against parasite-induced mortality by measuring survivial at 25 mg/kg, po bid via gavage administered for 5 consecutive days starting from day 5 post infection measured at day 40 post infection relative to control; format: functional
[36] = tested on: Trypanosoma cruzi; experiment: Antiparasitic activity against Trypanosoma cruzi Y strain bloodstream trypomastigotes infected in Swiss Webster mouse at 25 mg/kg, po bid via gavage administered for 5 consecutive days starting from day 5 post infection followed by cyclophosphamide-induced immunosuppression on day 40 post infection for 4 consecutive days; format: functional, organism-based
[37] = as §1; format: ADME, microsomes; details: microsomes, 0.25 h, 5 µM
[38] = as §2; format: ADME, microsomes; details: microsomes, 0.25 h, 5 µM
[39] = Cytotoxicity against Swiss mouse embryonic cardiomyocytes assessed as reduction in cell contractibillity at 2 uM after 24 hrs by light microscopy; details: cardiac muscle cell

Row | SMILES | remaining at 0.25 h, 5 µM [1] | selectivity ratio [2] | pEC50 [3] | pEC50 [4] | remaining at 0.25 h, 5 µM [5] | remaining at 0.5 h, 5 µM [6] | remaining at 1 h, 5 µM [7] | remaining at 0.5 h, 5 µM [9] | remaining at 1 h, 5 µM [10] | remaining at 0.5 h, 5 µM [12] | remaining at 1 h, 5 µM [13] | remaining at 0.25 h, 5 µM [14] | remaining at 0.5 h, 5 µM [15] | remaining at 1 h, 5 µM [16] | remaining at 0.25 h, 5 µM [17] | remaining at 0.5 h, 5 µM [18] | remaining at 0.5 h, 5 µM [19] | remaining at 1 h, 5 µM [20] | remaining at 0.25 h, 5 µM [21] | remaining at 1 h, 5 µM [22] | also measured
1 | Nc1ncnc2c1c(-c1ccc(Cl)cc1)cn2[C@@H]1O[C@H](CO)C[C@H]1O | 102% | 410 | 7.33 | 4.72 | 86% | 75% | 68% | 95% | 89% | 101% | 91% | 101% | 96% | 96% | 98% | 96% | 96% | 90% | 96% | 95% | remaining at 0.25 h, 5 µM [8]: 101%; remaining at 0.25 h, 5 µM [11]: 101%; remaining at 0.5 h, 5 µM [23]: 95%; remaining at 1 h, 5 µM [24]: 93%; remaining at 0.25 h, 5 µM [25]: 100%; remaining at 0.5 h, 5 µM [26]: 106%; remaining at 1 h, 5 µM [27]: 100%; Activity [28]: 94.6%; Activity [29]: Active; Activity [30]: Active; pEC50 [31]: < 4.70; pEC50 [32]: 7.54; pEC50 [33]: 3.55; Activity [34]: Non-Toxic; Activity [35]: 100%; Activity [36]: inactive
2 | Nc1ncnc2c1c(-c1ccc(Cl)cc1)cn2[C@@H]1O[C@H](CO)[C@@H](O)[C@H]1O | 113% | 57 | 6.33 | 4.57 | 110% | 95% | 102% | 110% | 106% | 104% | 106% | 100% | 93% | 93% | 93% | 96% | 70% | 98% | 84% | 55% | Stability [37]: 124%; Stability [38]: 122%; remaining at 0.5 h, 5 µM [23]: 93%; remaining at 1 h, 5 µM [24]: 86%; remaining at 0.25 h, 5 µM [25]: 99%; remaining at 0.5 h, 5 µM [26]: 96%; remaining at 1 h, 5 µM [27]: 91%; Activity [28]: >99.8%; pEC50 [31]: < 4.70; pEC50 [32]: 7.54; pEC50 [33]: 3.56; Activity [34]: Non-Toxic; Activity [35]: 100%; Activity [39]: Toxic; Activity [36]: inactive

Reference: ChEMBL document CHEMBL4382200, “Discovery of Novel 7-Aryl 7-Deazapurine 3'-Deoxy-ribofuranosyl Nucleosides with Potent Activity against Trypanosoma cruzi” (J Med Chem, 2018)
